Series [1] can be described thus: Half life in CD1 mouse brain assessed as baloxavir acid level at 15 mg/kg, po administered as single dose measured up to 24 hrs by LC-MS/MS analysis. Particulars: in vivo. The format is ADME, organism-based.
Series [2] is described as follows: Ratio of AUClast in CD1 mouse lung to plasma assessed as baloxavir acid level at 15 mg/kg, po administered as single dose measured up to 24 hrs by LC-MS/MS analysis. The format is ADME, organism-based. The following applies: other tissue.
Series [3] in a line: Tmax in CD1 mouse lung assessed as baloxavir acid level at 15 mg/kg, po administered as single dose measured up to 24 hrs by LC-MS/MS analysis. The format is ADME, organism-based. The following applies: in vivo.
Series [4] can be described thus: MRTlast in CD1 mouse kidney assessed as baloxavir acid level at 15 mg/kg, po administered as single dose measured up to 24 hrs by LC-MS/MS analysis. The series is classed as ADME, organism-based. Particulars: in vivo.
A short description of series [5]: Cmax in CD1 mouse plasma assessed as baloxavir acid level at 15 mg/kg, po administered as single dose measured up to 24 hrs by LC-MS/MS analysis. The series is classed as ADME, organism-based. Details: dose 15 mg/kg, route oral. The following applies: in vivo.
Series [6] is described as follows: Half life in CD1 mouse spleen assessed as baloxavir acid level at 15 mg/kg, po administered as single dose measured up to 24 hrs by LC-MS/MS analysis. Particulars: in vivo. The format is ADME, organism-based.
Series [7] is described as follows: AUClast in CD1 mouse plasma assessed as baloxavir acid level at 15 mg/kg, po administered as single dose measured up to 24 hrs by LC-MS/MS analysis. The arrangement: time < 24 hr, dose 15 mg/kg, route oral. The series is classed as ADME, organism-based. Particulars: in vivo.
Series [8] is described as follows: AUClast in CD1 mouse small intestine assessed as baloxavir acid level at 15 mg/kg, po administered as single dose measured up to 24 hrs by LC-MS/MS analysis. Particulars: in vivo. The format is ADME, organism-based.
The nature of series [9]: AUClast in CD1 mouse lung assessed as baloxavir acid level at 15 mg/kg, po administered as single dose by LC-MS/MS analysis. The format is ADME, organism-based. The following applies: in vivo.
A short description of series [10]: Half life in CD1 mouse heart assessed as baloxavir acid level at 15 mg/kg, po administered as single dose measured up to 24 hrs by LC-MS/MS analysis. The format is ADME, organism-based. Particulars: in vivo.
Series [11] in a line: Half life in CD1 mouse kidney assessed as (12aR)-12-(Diphenylmethyl)-7-hydroxy-3,4,12,12a-tetrahydro-1H-[1,4]oxazino[3,4-c]pyrido[2,1-f ][1,2,4]triazine-6,8-dione level at 15 mg/kg, po administered as single dose measured up to 24 hrs by LC-MS/MS analysis. The following applies: in vivo. The format is ADME, organism-based.
A short description of series [12]: Ratio of AUClast in CD1 mouse lung to plasma assessed as (12aR)-12-(Diphenylmethyl)-7-hydroxy-3,4,12,12a-tetrahydro-1H-[1,4]oxazino[3,4-c]pyrido[2,1-f ][1,2,4]triazine-6,8-dione level at 15 mg/kg, po administered as single dose by LC-MS/MS analysis. The format is ADME, organism-based. The following applies: other tissue.
The nature of series [13]: Tmax in CD1 mouse kidney assessed as (12aR)-12-(Diphenylmethyl)-7-hydroxy-3,4,12,12a-tetrahydro-1H-[1,4]oxazino[3,4-c]pyrido[2,1-f ][1,2,4]triazine-6,8-dione level at 15 mg/kg, po administered as single dose measured up to 24 hrs by LC-MS/MS analysis. The series is classed as ADME, organism-based. Particulars: in vivo.
The nature of series [14]: Elimination rate constant in CD1 mouse brain assessed as (12aR)-12-(Diphenylmethyl)-7-hydroxy-3,4,12,12a-tetrahydro-1H-[1,4]oxazino[3,4-c]pyrido[2,1-f ][1,2,4]triazine-6,8-dione level at 15 mg/kg, po administered as single dose measured up to 24 hrs by LC-MS/MS analysis. The format is ADME, organism-based. Particulars: in vivo.
Series [15] is described as follows: Elimination rate constant in CD1 mouse lung assessed as (12aR)-12-(Diphenylmethyl)-7-hydroxy-3,4,12,12a-tetrahydro-1H-[1,4]oxazino[3,4-c]pyrido[2,1-f ][1,2,4]triazine-6,8-dione level at 15 mg/kg, po administered as single dose measured up to 24 hrs by LC-MS/MS analysis. The series is classed as ADME, organism-based. The following applies: in vivo.
A short description of series [16]: MRTlast in CD1 mouse liver assessed as (12aR)-12-(Diphenylmethyl)-7-hydroxy-3,4,12,12a-tetrahydro-1H-[1,4]oxazino[3,4-c]pyrido[2,1-f ][1,2,4]triazine-6,8-dione level at 15 mg/kg, po administered as single dose measured up to 24 hrs by LC-MS/MS analysis. The series is classed as ADME, organism-based. Particulars: in vivo.
A short description of series [17]: MRTlast in CD1 mouse brain assessed as (12aR)-12-(Diphenylmethyl)-7-hydroxy-3,4,12,12a-tetrahydro-1H-[1,4]oxazino[3,4-c]pyrido[2,1-f ][1,2,4]triazine-6,8-dione level at 15 mg/kg, po administered as single dose measured up to 24 hrs by LC-MS/MS analysis. The format is ADME, organism-based. Particulars: in vivo.
Series [18] can be described thus: MRTlast in CD1 mouse small intestine assessed as (12aR)-12-(Diphenylmethyl)-7-hydroxy-3,4,12,12a-tetrahydro-1H-[1,4]oxazino[3,4-c]pyrido[2,1-f ][1,2,4]triazine-6,8-dione level at 15 mg/kg, po administered as single dose measured up to 24 hrs by LC-MS/MS analysis. The series is classed as ADME, organism-based. The following applies: in vivo.
Series [19] can be described thus: Tmax in CD1 mouse muscle assessed as (12aR)-12-(Diphenylmethyl)-7-hydroxy-3,4,12,12a-tetrahydro-1H-[1,4]oxazino[3,4-c]pyrido[2,1-f ][1,2,4]triazine-6,8-dione level at 15 mg/kg, po administered as single dose measured up to 24 hrs by LC-MS/MS analysis. The format is ADME, organism-based, Muscle tissue. The following applies: in vivo.
The nature of series [20]: MRTlast in CD1 mouse plasma assessed as (12aR)-12-(Diphenylmethyl)-7-hydroxy-3,4,12,12a-tetrahydro-1H-[1,4]oxazino[3,4-c]pyrido[2,1-f ][1,2,4]triazine-6,8-dione level at 15 mg/kg, po administered as single dose measured up to 24 hrs by LC-MS/MS analysis. The format is ADME, organism-based. The following applies: in vivo.
Series [21] is described as follows: AUClast in CD1 mouse kidney assessed as (12aR)-12-(Diphenylmethyl)-7-hydroxy-3,4,12,12a-tetrahydro-1H-[1,4]oxazino[3,4-c]pyrido[2,1-f ][1,2,4]triazine-6,8-dione level at 15 mg/kg, po administered as single dose measured up to 24 hrs by LC-MS/MS analysis. The series is classed as ADME, organism-based. The following applies: in vivo.
Series [22] can be described thus: Cmax in CD1 mouse muscle assessed as (12aR)-12-(Diphenylmethyl)-7-hydroxy-3,4,12,12a-tetrahydro-1H-[1,4]oxazino[3,4-c]pyrido[2,1-f ][1,2,4]triazine-6,8-dione level at 15 mg/kg, po administered as single dose measured up to 24 hrs by LC-MS/MS analysis. Details: dose 15 mg/kg, route oral. Particulars: in vivo. The format is ADME, organism-based, Muscle tissue.
Series [23] is described as follows: AUClast in CD1 mouse liver assessed as (12aR)-12-(Diphenylmethyl)-7-hydroxy-3,4,12,12a-tetrahydro-1H-[1,4]oxazino[3,4-c]pyrido[2,1-f ][1,2,4]triazine-6,8-dione level at 15 mg/kg, po administered as single dose measured up to 24 hrs by LC-MS/MS analysis. The series is classed as ADME, organism-based. Particulars: in vivo.
The nature of series [24]: Acute toxicity in CD1 mouse assessed as effect on food consumption at 2000 mg/kg, po measured for 2 weeks. The series is classed as organism-based. Particulars: in vivo, 336 h.
Series [25] is described as follows: Cmax in CD1 mouse plasma assessed as (12aR)-12-(Diphenylmethyl)-7-hydroxy-3,4,12,12a-tetrahydro-1H-[1,4]oxazino[3,4-c]pyrido[2,1-f ][1,2,4]triazine-6,8-dione level at 15 mg/kg, po administered as single dose measured up to 24 hrs by LC-MS/MS analysis. The series is classed as ADME, organism-based. The arrangement: dose 15 mg/kg, route oral. The following applies: in vivo.

For orientation: Tmax means the time at which the peak concentration occurs. One may read the Cmax as the highest concentration seen after dosing.

In the case of `COC(=O)OCOc1c2n(ccc1=O)N([C@@H]1c3ccccc3SCc3c1ccc(F)c3F)[C@@H]1COCCN1C2=O` [BALOXAVIR MARBOXIL], the t1/2 in series [1] worked out at 11.3 h; in series [6] it was 3.51 h; in series [10], 3.4 h. In series [2], the “Ratio AUC” value is 21.1. Moreover, the Tmax in [3] is 2 h. The MRTlast in series [4] was 4.27 h. In addition, the Cmax in series [5] is 88.5 ng/mL. The AUClast in [7] amounted to 452 ng·h/mL; in series [8] it was 105778 ng·h/g; in [9], 11909 ng·h/g.
As for `COC(=O)OCOc1c2n(ccc1=O)N(C(c1ccccc1)c1ccccc1)[C@@H]1COCCN1C2=O`, in [11], the t1/2 was determined as 2.57 h. Also, the “Ratio AUC” value in series [12] stood at 3. Moreover, the Tmax in series [13] and in series [19] was 0.5 h each time. For the same compound, the Kel in series [14] stood at 0.08 h⁻¹; in [15] it was 0.44 h⁻¹. Besides, the MRTlast in series [16] was 2.31 h; in series [17], 3.33 h; in series [18], 1.28 h; in [20], 1.67 h. Further, the AUClast is 18065 ng·h/g in series [21] and 34818 ng·h/g in series [23]. Moreover, the Cmax stood at 2005 ng/g in [22] and 1251 ng/mL in series [25]. For the same compound, the Activity result in series [24] was “Non-Toxic”.

Source of the values: ChEMBL document CHEMBL4622979, “Non-rigid Diarylmethyl Analogs of Baloxavir as Cap-Dependent Endonuclease Inhibitors of Influenza Viruses” (J Med Chem, 2020).
